# Patent US11267812B2 (Mirati Therapeutics, Inc., priority 2016, dated 2022)
# Tested on: Phospho-ERK in NCI-H358 cells expressing KRas G12C
# Assay: Cellular inhibition of KRas G12C by Phospho-ERK measurement in NCI-H358 cells
# Assay type: cell-based
# Details: Homo sapiens, NCI-H358, 3 h, read-out: IC50 (pERK(Thr202/Tyr204) normalized with GAPDH)
# Protocol: The cellular inhibition of KRAs G12C by exemplary compounds of the present invention was determined by measuring the amount of a downstream marker of KRas activity, phosphorylated ERK (“Phospho-ERK”).
# NCI-H358 cells (ATCC CRL-5807) express KRas G12C and were grown in RPMI medium supplemented with 10% fetal bovine serum, penicillin/streptomycin and 10 mM HEPES. Cells were plated in poly-D-Lysine coated 96-well plates at a concentration of 50,000 cells/well and allowed to attach for 8-12 hours. Diluted compounds were then added at a final concentration of 0.5% DMSO. After 3 hours, the medium was removed, 150 μL of 4% formaldehyde was added and the plates were incubated for 20 minutes. The plates were washed with PBS, and permeabilized using 150 μL of ice cold 100% methanol for 10 minutes. Non-specific antibody binding to the plates was blocked using 100 μL Licor Blocking Buffer (Li-Cor Biotechnology, Lincoln Nebr.) for 1 hour at room temperature. Positive control samples and samples lacking cells were parallel processed with test samples as standards.
# The amount Phospho-ERK was determined using an antibody specific for the phosphorylated form of ERK and compared to the amount of GAPDH. Primary antibodies used for detection were added as follows: Phospho-ERK (Cell Signaling cs9101) diluted 1:500 and GAPDH (Millipore MAB374) diluted 1:5000 in Licor block+0.05% Tween 20. The plates were incubated for 2 hours at room temperature. The plates were washed with PBS+0.05% Tween 20.
# Secondary antibodies used to visualize primary antibodies were added as follows: Anti-rabbit-680 diluted 1:1000 and Anti-mouse-800 diluted 1:1000 in Licor Block+0.050 Tween 20 and incubated for 1 hour at room temperature. The plates were washed with PBS+0.05% o Tween 20. A100 L aliquot of PBS was added to each well and the plates were read on a LICOR AERIUS plate reader.
# The pERK(Thr202/Tyr204) signal was normalized with the GAPDH signal and percent of DMSO control values were calculated. IC50 values were generated using a 4 parameter fit of the dose response curve. Key: “A”≥0.001-≤1 μM; “B”[…] and ND=not determined.
row,Compound,IC50 [nM]
1,"C=CC(=O)N1CCN(c2nc(OC[C@@H]3CCCN3C)nc3c2CCN(c2cc(O)cc4ccccc24)C3)CC1 [Example 127, (S)-1-(4-(7-(3-hydroxynaphthalen-1-yl)-2-((1-methylpyrrolidin-2-yl)methoxy)-5,6,7,8-tetrahydropyrido[3,4-d]pyrimidin-4-yl)piperazin-1-yl)prop-2-en-1-one]",1 to 1000
2,"C=CC(=O)N1CCN(c2nc(OC[C@H]3CCN(C)C3)nc3c2CCN(c2cc(O)cc4ccccc24)C3)CC1 [Example 188, (S)-1-(4-(7-(3-hydroxynaphthalen-1-yl)-2-((1-methylpyrrolidin-3-yl)methoxy)-5,6,7,8-tetrahydropyrido[3,4-d]pyrimidin-4-yl)piperazin-1-yl)prop-2-en-1-one]",1 to 1000

# Same assay, conditions: Homo sapiens; NCI-H358 cells, 3 hours compound treatment; read-out: IC50 (pERK(Thr202/Tyr204) normalized with GAPDH)
row,Compound,IC50 [nM]
1,"C=CC(=O)N1CCN(c2nc(OCCCN3C[C@@H]4C[C@H]3CO4)nc3c2CCN(c2cccc4ccccc24)C3)CC1CC#N (stereo partly drawn) [Example 154, 2-[4-[7-(1-naphthyl)-2-[3-[(1S,4S)-2-oxa-5-azabicyclo[2.2.1]heptan-5-yl]propoxy]-6,8-dihydro-5H-pyrido[3,4-d]pyrimidin-4-yl]-1-prop-2-enoyl-piperazin-2-yl]acetonitrile]",1 to 1000
2,"C=CC(=O)N1CCN(c2nc(OC[C@@H]3CCCN3C)nc3c2CCN(c2cnccc2C(F)(F)F)C3)CC1CC#N (stereo partly drawn) [Example 212, 2-(1-acryloyl-4-(2-(((S)-1-methylpyrrolidin-2-yl)methoxy)-7-(4-(trifluoromethyl)pyridin-3-yl)-5,6,7,8-tetrahydropyrido[3,4-d]pyrimidin-4-yl)piperazin-2-yl)acetonitrile]",1 to 1000
3,"C=CC(=O)N1CCN(c2nc(OC[C@@H]3CCCN3C)nc3c2CCN(c2cccc(F)c2C(F)(F)F)C3)CC1CC#N (stereo partly drawn) [Example 230, 2-(1-acryloyl-4-(7-(3-fluoro-2-(trifluoromethyl)phenyl)-2-(((S)-1-methylpyrrolidin-2-yl)methoxy)-5,6,7,8-tetrahydropyrido[3,4-d]pyrimidin-4-yl)piperazin-2-yl)acetonitrile]",1 to 1000
4,"C=CC(=O)N1CCN(c2nc(OC[C@@H]3CCCN3C)nc3c2CCN(c2cc(F)ccc2OC(F)(F)F)C3)CC1CC#N (stereo partly drawn) [Example 225, 2-(1-acryloyl-4-(7-(5-fluoro-2-(trifluoromethoxy)phenyl)-2-(((S)-1-methylpyrrolidin-2-yl)methoxy)-5,6,7,8-tetrahydropyrido[3,4-d]pyrimidin-4-yl)piperazin-2-yl)acetonitrile]",1 to 1000
5,"C=CC(=O)N1CCN(c2nc(OCCN3C[C@@H]4CC[C@H]3C4)nc3c2CCN(c2cc(O)cc4ccccc24)C3)CC1 [Example 77, 1-(4-(2-(2-((1S,4R)-2-azabicyclo[2.2.1]heptan-2-yl)ethoxy)-7-(3-hydroxynaphthalen-1-yl)-5,6,7,8-tetrahydropyrido[3,4-d]pyrimidin-4-yl)piperazin-1-yl)prop-2-en-1-one]",1 to 1000
6,"C=CC(=O)N1CCN(c2nc(OC[C@@H]3CCCN3C)nc3c2CCN(c2cc(O)cc4ccccc24)C3)[C@@H](C)C1 [Example 202, 1-((S)-4-(7-(3-hydroxynaphthalen-1-yl)-2-(((S)-1-methylpyrrolidin-2-yl)methoxy)-5,6,7,8-tetrahydropyrido[3,4-d]pyrimidin-4-yl)-3-methylpiperazin-1-yl)prop-2-en-1-one]",1 to 1000
7,"C=CC(=O)N1CCN(c2nc(OC[C@@H]3CCCN3CC)nc3c2CCN(c2cc(O)cc4ccccc24)C3)CC1 [Example 197, (S)-1-(4-(2-((1-ethylpyrrolidin-2-yl)methoxy)-7-(3-hydroxynaphthalen-1-yl)-5,6,7,8-tetrahydropyrido[3,4-d]pyrimidin-4-yl)piperazin-1-yl)prop-2-en-1-one]",1 to 1000
8,C=CC(=O)N1CCN(c2nc(OCCN(CC)CC)nc3c2CCN(c2cc(O)cc4ccccc24)C3)CC1 [Example 102],1 to 1000
9,"C/C=C/C(=O)N1CCN(c2nc(OC[C@@H]3CCCN3C)nc3c2CCN(c2cccc4ccccc24)C3)CC1CC#N (stereo partly drawn) [Example 263, 2-[1-[(E)-but-2-enoyl]-4-[2-[[(2S)-1-methylpyrrolidin-2-yl]methoxy]-7-(1-naphthyl)-6,8-dihydro-5H-pyrido[3,4-d]pyrimidin-4-yl]piperazin-2-yl]acetonitrile]",1 to 1000
10,"C=CC(=O)N1CCN(c2nc(O[C@H](C)CN3CCOCC3)nc3c2CCN(c2cc(O)cc4ccccc24)C3)CC1 [Example 56, (R)-1-(4-(7-(3-hydroxynaphthalen-1-yl)-2-((1-morpholinopropan-2-yl)oxy)-5,6,7,8-tetrahydropyrido[3,4-d]pyrimidin-4-yl)piperazin-1-yl)prop-2-en-1-one]",1 to 1000
11,"C=CC(=O)N1CCN(c2nc(OC[C@@H]3C[C@@H](O)CN3C)nc3c2CCN(c2cccc4ccccc24)C3)CC1CC#N (stereo partly drawn) [Example 218, 2-(1-acryloyl-4-(2-(((2S,4R)-4-hydroxy-1-methylpyrrolidin-2-yl)methoxy)-7-(naphthalen-1-yl)-5,6,7,8-tetrahydropyrido[3,4-d]pyrimidin-4-yl)piperazin-2-yl)acetonitrile]",1 to 1000
12,"C=CC(=O)N1CCN(c2nc(OCCCN3C[C@@H]4C[C@H]3CO4)nc3c2CCN(c2cc(O)cc4ccccc24)C3)CC1 [Example 104, 1-(4-(2-(3-((1S,4S)-2-oxa-5-azabicyclo[2.2.1]heptan-5-yl)propoxy)-7-(3-hydroxynaphthalen-1-yl)-5,6,7,8-tetrahydropyrido[3,4-d]pyrimidin-4-yl)piperazin-1-yl)prop-2-en-1-one]",1 to 1000
13,"C=CC(=O)N1CCN(c2nc(OCCCN3CCOCC3)nc3c2CCN(c2cc(O)cc4ccccc24)C3)CC1 [Example 74, 1-(4-(7-(3-hydroxynaphthalen-1-yl)-2-(3-morpholinopropoxy)-5,6,7,8-tetrahydropyrido[3,4-d]pyrimidin-4-yl)piperazin-1-yl)prop-2-en-1-one]",1 to 1000
14,"C=CC(=O)N1CCN(c2nc(O[C@H](C)CN(C)C)nc3c2CCN(c2c(C)ccc4[nH]ncc24)C3)CC1CC#N (stereo partly drawn) [Example 152, 2-[4-[2-[(1R)-2-(dimethylamino)-1-methyl-ethoxy]-7-(5-methyl-1H-indazol-4-yl)-6,8-dihydro-5H-pyrido[3,4-d]pyrimidin-4-yl]-1-prop-2-enoyl-piperazin-2-yl]acetonitrile]",1 to 1000
15,"C=CC(=O)N1CCN(c2nc(OC[C@@H]3CCCN3C)nc3c2CCN(c2ccc(F)cc2C(F)(F)F)C3)CC1CC#N (stereo partly drawn) [Example 276, 2-(1-acryloyl-4-(7-(4-fluoro-2-(trifluoromethyl)phenyl)-2-(((S)-1-methylpyrrolidin-2-yl)methoxy)-5,6,7,8-tetrahydropyrido[3,4-d]pyrimidin-4-yl)piperazin-2-yl)acetonitrile]",1 to 1000
16,"C=CC(=O)N1CCN(c2nc(OCCN(C)C)nc3c2CCN(c2cc(O)cc4ccccc24)C3)C[C@@H]1CC#N [Example 176, 2-[(2S)-4-[2-[2-(dimethylamino)ethoxy]-7-(3-hydroxy-1-naphthyl)-6,8-dihydro-5H-pyrido[3,4-d]pyrimidin-4-yl]-1-prop-2-enoyl-piperazin-2-yl]acetonitrile]",1 to 1000
17,"C=CC(=O)N1CCN(c2nc(O[C@H](C)[C@H]3CCCN3C)nc3c2CCN(c2cc(O)cc4ccccc24)C3)CC1 [Example 129, 1-[4-[7-(3-hydroxy-1-naphthyl)-2-[(1R)-1-[(2R)-1-methylpyrrolidin-2-yl]ethoxy]-6,8-dihydro-5H-pyrido[3,4-d]pyrimidin-4-yl]piperazin-1-yl]prop-2-en-1-one]",1 to 1000
18,"C=CC(=O)N1CCN(c2nc(OC[C@H]3CCCN3C)nc3c2CCN(c2c(C(F)(F)F)ccc4[nH]ncc24)C3)CC1CC#N (stereo partly drawn) [Example 243, 2-[4-[2-[[(2R)-1-methylpyrrolidin-2-yl]methoxy]-7-[5-(trifluoromethyl)-1H-indazol-4-yl]-6,8-dihydro-5H-pyrido[3,4-d]pyrimidin-4-yl]-1-prop-2-enoyl-piperazin-2-yl]acetonitrile]",1 to 1000
19,"CN(C)C/C=C/C(=O)N1CCN(c2nc(OC[C@@H]3CCCN3C)nc3c2CCN(c2cccc4ccccc24)C3)C[C@@H]1CC#N [Example 235, 2-((S)-1-((E)-4-(dimethylamino)but-2-enoyl)-4-(2-(((S)-1-methylpyrrolidin-2-yl)methoxy)-7-(naphthalen-1-yl)-5,6,7,8-tetrahydropyrido[3,4-d]pyrimidin-4-yl)piperazin-2-yl)acetonitrile]",1 to 1000
20,"C=CC(=O)N1CCN(c2nc(OC[C@@H]3CCCN3C)nc3c2CCN(c2cccc4cc(F)ccc24)C3)CC1CC#N (stereo partly drawn) [Example 259, 2-[4-[7-(6-fluoro-1-naphthyl)-2-[[(2S)-1-methylpyrrolidin-2-yl]methoxy]-6,8-dihydro-5H-pyrido[3,4-d]pyrimidin-4-yl]-1-prop-2-enoyl-piperazin-2-yl]acetonitrile]",1 to 1000
